pIC50: −log10 of the molar value. Counter-ions that a name gives are not always drawn.
Target: T1, human αVβ6 (Homo sapiens, UniProt P06756+P18564)
T1 construct: purchased R & D systems 3817-AV
Assay: human αVβ6 HTRF binding assay
Conditions: alternatively SPA-based assay
Experimental: All binding assays used the HTRF (homogeneous time resolved fluorescence) technology from Cisbio International, therefore all assays are described as HTRF binding assays. The assay results for the Examples are listed above together with the characterization data. The HTRF binding assays are established for the following integrins: human αVβ6, human αVβ1, human αVβ3, human αVβ5, and human αVβ8. All assays used the following assay buffer: 20 mM Tris, pH 7.4, 1 mM MgCl2, 1 mM MnCl2, 0.01% Tween 20, and 0.01% BSA. Alternatively, a SPA-based assay was used for evaluation of receptor binding.
The following describes the components and a representative procedure for the human αVβ6 HTRF binding assay: Recombinant human αVβ6 Integrin (R & D systems, 3817-AV) was biotinylated. Biotinylated human αVβ6 Integrin was added to assay vessel at a final concentration of 1.25 nM. FITC-conjugated fibronectin (Cytoskeleton, FNR02) was then added at the final concentration of 5 nM. The mixture was centrifuged at 600 rpm for three minutes using Thermo Fisher Heraeus Multifuge X3 centrifuge and then incubated at RT for an hour. Streptavidin Terbium (Cisbio international 610STLB) was then added at the final concentration of 0.625 nM. The resulting mixture was centrifuged at 600 rpm for three minutes using Thermo Fisher Heraeus Multifuge X3 centrifuge and then incubated at room temperature overnight in dark before reading HTRF signals.
The SPA-based assay was carried out according to the protocol and procedures similar to the ones described in the following reference with appropriate modifications to agents and ligands which are readily understood by one skilled in the art: Pachter J A, Zhang R, Mayer-Ezell R., “Scintillation proximity assay to measure binding of soluble fibronectin to antibody-captured αVβ1 integrin” Anal Biochem. 1995 Sep. 1; 230(1):101-7.

T1 sequence (P06756 31-992 limits assumed): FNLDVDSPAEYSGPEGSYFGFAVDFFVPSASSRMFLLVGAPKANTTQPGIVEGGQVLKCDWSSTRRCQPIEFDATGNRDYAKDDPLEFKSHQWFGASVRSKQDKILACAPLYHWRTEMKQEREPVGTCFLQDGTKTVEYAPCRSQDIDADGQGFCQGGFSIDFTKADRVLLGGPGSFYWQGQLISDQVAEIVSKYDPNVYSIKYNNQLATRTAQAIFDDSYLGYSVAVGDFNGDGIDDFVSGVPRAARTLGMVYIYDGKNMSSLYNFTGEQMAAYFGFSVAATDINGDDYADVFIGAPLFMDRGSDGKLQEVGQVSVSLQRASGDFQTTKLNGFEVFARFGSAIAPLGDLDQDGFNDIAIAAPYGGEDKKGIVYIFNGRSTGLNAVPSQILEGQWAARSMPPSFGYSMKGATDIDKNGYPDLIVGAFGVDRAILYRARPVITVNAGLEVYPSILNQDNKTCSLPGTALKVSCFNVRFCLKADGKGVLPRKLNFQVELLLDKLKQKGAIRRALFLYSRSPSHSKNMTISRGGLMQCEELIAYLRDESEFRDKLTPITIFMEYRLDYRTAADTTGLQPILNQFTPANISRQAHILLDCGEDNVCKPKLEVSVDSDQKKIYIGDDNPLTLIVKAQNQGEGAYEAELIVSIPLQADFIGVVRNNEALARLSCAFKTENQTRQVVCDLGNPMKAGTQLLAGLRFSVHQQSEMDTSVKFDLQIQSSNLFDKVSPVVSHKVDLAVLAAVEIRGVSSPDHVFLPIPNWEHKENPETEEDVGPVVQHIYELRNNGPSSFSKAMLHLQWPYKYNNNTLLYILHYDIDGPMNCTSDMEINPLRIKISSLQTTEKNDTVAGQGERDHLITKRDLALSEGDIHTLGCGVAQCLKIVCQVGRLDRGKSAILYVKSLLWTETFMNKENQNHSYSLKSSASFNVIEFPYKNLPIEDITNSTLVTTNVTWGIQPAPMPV
T1 sequence (P18564 22-707 limits assumed): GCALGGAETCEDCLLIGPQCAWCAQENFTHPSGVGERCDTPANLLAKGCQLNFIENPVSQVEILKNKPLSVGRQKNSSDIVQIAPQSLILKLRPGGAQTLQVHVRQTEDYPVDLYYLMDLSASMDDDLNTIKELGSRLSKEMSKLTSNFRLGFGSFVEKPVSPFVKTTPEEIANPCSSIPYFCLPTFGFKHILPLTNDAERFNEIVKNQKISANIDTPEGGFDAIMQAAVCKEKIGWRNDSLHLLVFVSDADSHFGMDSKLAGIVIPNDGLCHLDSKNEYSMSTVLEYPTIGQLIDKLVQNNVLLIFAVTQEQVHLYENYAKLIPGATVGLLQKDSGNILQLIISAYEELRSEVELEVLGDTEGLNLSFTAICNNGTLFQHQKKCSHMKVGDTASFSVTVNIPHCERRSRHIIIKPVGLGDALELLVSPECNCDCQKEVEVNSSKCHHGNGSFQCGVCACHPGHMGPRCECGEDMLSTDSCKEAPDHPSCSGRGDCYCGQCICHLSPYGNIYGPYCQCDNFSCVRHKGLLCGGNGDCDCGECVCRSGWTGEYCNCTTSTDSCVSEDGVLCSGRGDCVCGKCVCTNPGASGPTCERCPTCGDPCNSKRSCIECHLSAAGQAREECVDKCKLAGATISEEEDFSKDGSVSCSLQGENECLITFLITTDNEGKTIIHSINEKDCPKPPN

SMILES | pIC50
O=C(N[C@@H](CC(=O)N1CC(CCc2ccc3c(n2)NCCC3)C1)C(=O)O)OCc1cccc(F)c1 [Example 176] | 6.53
COC(Cc1ccc2c(n1)NCCC2)C1CN(C(=O)C[C@H](NC(=O)OCc2ccccc2)C(=O)O)C1 (stereo partly drawn) [Example 24, (2S)-2-(((Benzyloxy)carbonyl)amino)-4-(3-(1-methoxy-2-(5,6,7,8-tetrahydro-1,8-naphthyridin-2-yl)ethyl)azetidin-1-yl)-4-oxobutanoic acid] | 6.31
COc1ccc([C@H](CC(=O)O)NC(=O)N2CC(F)(CCc3ccc4c(n3)NCCC4)C2)cc1F [Example 76] | 9.02
O=C(O)C[C@H](NC(=O)C1CC2(CC(NC(=O)CCc3ccc4c(n3)NCCC4)C2)C1)c1cc(Cl)cc(Cl)c1 (stereo partly drawn) [Example 30] | 5.48
COc1ccc([C@H](CC(=O)O)NC(=O)C2CC(CCC3CCc4cccnc4N3)C2)cn1 (stereo partly drawn) [Example 57] | 9.03
Cc1cc(C)c(S(=O)(=O)N[C@@H](CNC2CN(CCCc3ccc4c(n3)NCCC4)C2)C(=O)O)c(C)c1 [Example 73] | 8.19
COc1ccc(C(CC(=O)O)C2CC3(CC(CCc4ccc5c(n4)NCCC5)C3)C2)cn1 (stereo not drawn) [Example 141] | 8.54
O=C(C[C@H](NC(=O)OCc1ccccc1)C(=O)O)NC1CC(CCc2ccc3c(n2)NCCC3)C1 (stereo partly drawn) [Example 64] | 8.40
COC(=O)N(C1CC2(C1)CN(CCc1ccc3c(n1)NCCC3)C2)[C@@H](CC(=O)O)c1cc(Cl)cc(Cl)c1 [Example 19, (S)-3-(3,5-Dichlorophenyl)-3-((methoxycarbonyl)(2-(2-(5,6,7,8-tetrahydro-1,8-naphthyridin-2-yl)ethyl)-2-azaspiro[3.3]heptan-6-yl)amino)propanoic acid] | 7.07
Cc1nc2c(cc1CCN1CC3(CC(C(=O)N[C@@H](CC(=O)O)c4cc(Cl)cc(Cl)c4)C3)C1)CCCN2 [Example 4, (S)-3-(3,5-Dichlorophenyl)-3-(2-(2-(2-methyl-5,6,7,8-tetrahydro-1,8-naphthyridin-3-yl)ethyl)-2-azaspiro[3.3]heptane-6-carboxamido)propanoic acid] | 7.60
O=C(O)C[C@H](NC(=O)[C@H]1C[C@H](CCc2ccc3c(n2)NCCC3)C1)c1cc(Cl)cc(Cl)c1 [Example 92] | 8.92
O=C(O)CC(c1cccc(N2CCOCC2)c1)C1CC2(CC(CCc3ccc4c(n3)NCCC4)C2)C1 (stereo not drawn) [Example 145] | 8.57
O=C(O)C[C@H](NC(=O)C1CC2(CC(NC(=O)CCc3ccc4c(n3)NCCC4)C2)C1)c1cc(Cl)cc(Cl)c1 (stereo partly drawn) [Example 29] | 5.70
CCOC(=O)[C@H](CNC(=O)C1CC2(C1)CN(CCc1ccc3c(n1)NCCC3)C2)NS(=O)(=O)c1c(C)cc(C)cc1C [Example 47] | 6.80
CCOC(=O)[C@H](CNC(=O)[C@H]1C[C@@H](Cc2ccc3c(n2)NCCC3)C1)NC(=O)OCc1ccccc1 [Example 195, Ethyl (S)-2-(((benzyloxy)carbonyl)amino)-3-(cis-3-((5,6,7,8-tetrahydro-1,8-naphthyridin-2-yl)methyl)cyclobutane-1-carboxamido)propanoate] | 7.89
O=C(O)CC(c1ccc(N2CCOCC2)nc1)C1CC2(CC(CCc3ccc4c(n3)NCCC4)C2)C1 (stereo not drawn) [Example 144] | 8.31
O=C(N[C@@H](CCN1CC2(CC(CCc3ccc4c(n3)NCCC4)C2)C1)C(=O)O)OCc1ccccc1 [Example 8, (S)-2-(((Benzyloxy)carbonyl)amino)-4-(6-(2-(5,6,7,8-tetrahydro-1,8-naphthyridin-2-yl)ethyl)-2-azaspiro[3.3]heptan-2-yl)butanoic acid] | 8.70
Cc1cc(C)c(S(=O)(=O)N[C@@H](CNC(=O)C2CC3(CC(NC(=O)CCc4ccc5c(n4)NCCC5)C3)C2)C(=O)O)c(C)c1 (stereo partly drawn) [Example 28] | 6.42
Cc1cc(C)n(-c2cccc(C(CC(=O)O)N3CC4(CC(Cc5ccc6c(n5)NCCC6)C4)C3)c2)n1 (stereo not drawn) [Example 211, 3-(3-(3,5-dimethyl-1H-pyrazol-1-yl)phenyl)-3-(6-((5,6,7,8-tetrahydro-1,8-naphthyridin-2-yl)methyl)-2-azaspiro[3.3]heptan-2-yl)propanoic acid] | 8.44
O=C(O)CCN(C(=O)OCc1ccccc1)C1CN(CCCc2ccc3c(n2)NCCC3)C1 [Example 119] | 8.13
O=C(O)CC(c1cnc2ccccc2c1)C1(F)CN(CCCCc2ccc3c(n2)NCCC3)C1 (stereo not drawn) [Example 118] | 8.23
O=C(O)C[C@H](NC(=O)C1(F)CN(CCc2ccc3c(n2)NCCC3)C1)c1ccc2c(c1)OCC2 [Example 81] | 9.03
O=C(O)CC(c1cnc2ccccc2c1)C1CC2(C1)CN(CCCc1ccc3c(n1)NCCC3)C2 (stereo not drawn) [Example 117] | 8.57
COc1ccc([C@H](CC(=O)O)NC(=O)[C@H]2C[C@@H](CCc3ccc4c(n3)NCCC4)C2)cc1F [Example 54] | 9.30
COc1ccc(C(NC(=O)C2CC(CCc3ccc4c(n3)NCCC4)C2)C(C)(C)C(=O)O)cn1 (stereo not drawn) [Example 192] | 5.36

The remaining lines, values ahead:

pIC50 | SMILES
6.35 | COc1ccc([C@H](CC(=O)O)N2CC(C)(CCCCc3ccc4c(n3)NCCC4)C2=O)cn1 (single isomer, unassigned) [Example 177]
8.37 | COc1ncc([C@H](CC(=O)O)NC(=O)N2CC(CCc3ccc4c(n3)NCCC4)C2)cn1 [Example 123]
8.82 | O=C(O)C[C@@H](c1cc(F)cc(F)c1)N1CC(CCCCc2ccc3c(n2)NCCC3)C1=O (stereo partly drawn) [Example 71]
8.24 | O=C(O)CC(NC(=O)[C@H]1C[C@H](CCc2ccc3c(n2)NCCC3)C1)c1cnc(C(F)(F)F)nc1 (single isomer, unassigned) [Example 193, 3-(trans-3-(2-(5,6,7,8-Tetrahydro-1,8-naphthyridin-2-yl)ethyl)cyclobutane-1-carboxamido)-3-(2-(trifluoromethyl)pyrimidin-5-yl)propanoic acid]
9.00 | COc1ccc([C@H](CC(=O)O)NC(=O)[C@H]2C[C@@H](CCc3ccc4c(n3)NCCC4)C2)cn1 [Example 60]
8.96 | COc1ccc([C@H](CC(=O)O)N2CC(C)(CCCCc3ccc4c(n3)NCCC4)C2)cc1F [Example 158, (S)-3-(3-fluoro-4-methoxyphenyl)-3-(3-methyl-3-(4-(5,6,7,8-tetrahydro-1,8-naphthyridin-2-yl)butyl)azetidin-1-yl)propanoic acid]
8.09 | Cc1ncc(C(CC(=O)O)N2CC(OCCCc3ccc4c(n3)NCCC4)C2)cn1 (stereo not drawn) [Example 130, 3-(2-methylpyrimidin-5-yl)-3-(3-(3-(5,6,7,8-tetrahydro-1,8-naphthyridin-2-yl)propoxy)azetidin-1-yl)propanoic acid, 2 TFA]
8.54 | O=C(O)C[C@H](NC(=O)[C@H]1C[C@@H](CCc2ccc3c(n2)NCCC3)C1)c1cncnc1 [Example 91]
8.55 | COc1ccc(CN(CCC(=O)O)C2CN(CCCc3ccc4c(n3)NCCC4)C2)cn1 [Example 23, 3-(((6-Methoxypyridin-3-yl)methyl)(1-(3-(5,6,7,8-tetrahydro-1,8-naphthyridin-2-yl)propyl)azetidin-3-yl)amino)propanoic acid]
8.07 | COc1ccc(C(CC(=O)O)C2CN(CCCCc3ccc4c(n3)NCCC4)C2)cc1F (stereo not drawn) [Example 143]
8.85 | O=C(O)C[C@@H](c1cc(F)cc(F)c1)N1CC(CCCCc2ccc3c(n2)NCCC3)C1 [Example 152]
8.57 | O=C(O)C[C@@H](c1cnc2ccccc2c1)N1CC(CCCCc2ccc3c(n2)NCCC3)C1=O (stereo partly drawn) [Example 107]
8.48 | Cc1ncc([C@H](CC(=O)O)N2CC(F)(CCCCc3ccc4c(n3)NCCC4)C2)cn1 [Example 167]
8.11 | COc1ccc(C(CC(=O)O)C2CC(CCCCc3ccc4c(n3)NCCC4)C2)cn1 (single isomer, unassigned; diastereomer b) [Example 140, 3-(6-Methoxypyridin-3-yl)-3-(3-(4-(5,6,7,8-tetrahydro-1,8-naphthyridin-2-yl)butyl)cyclobutyl)propanoic acid (Diastereomer B)]
8.24 | COc1ccc([C@H](CC(=O)O)N2CC(CCCc3ccc4c(n3)NCCC4)C2=O)cn1 (single isomer, unassigned) [Example 182]
8.49 | COc1ccc(C(CC(=O)O)C2CC(CCCCc3ccc4c(n3)NCCC4)C2)cn1 (stereo not drawn) [Example 138, 3-(6-Methoxypyridin-3-yl)-3-(3-(4-(5,6,7,8-tetrahydro-1,8-naphthyridin-2-yl)butyl)cyclobutyl)propanoic acid]
8.70 | COc1ccc([C@H](CC(=O)O)N2CC(CCCc3ccc4c(n3)NCCC4)C2)cc1F [Example 168, (S)-3-(3-Fluoro-4-methoxyphenyl)-3-(3-(3-(5,6,7,8-tetrahydro-1,8-naphthyridin-2-yl)propyl)azetidin-1-yl)propanoic acid]
8.43 | COc1ccc(C(CC(=O)O)N2CC3(CC(CCc4ccc5c(n4)NCCC5)C3)C2)cn1 (stereo not drawn) [Example 205]
8.23 | COc1ccc(C(CC(=O)O)C2CC3(C2)CN(CCCc2ccc4c(n2)NCCC4)C3)cn1 (stereo not drawn) [Example 99]
9.05 | O=C(O)C[C@@H](c1cc(Cl)cc(Cl)c1)N1CC(CCCCc2ccc3c(n2)NCCC3)C1=O (stereo partly drawn) [Example 109]
